*1 amine or outer side, *2 acyl side, *3 side chain or, on linkers, in order; H or OH if unused. Where a SMILES comes first, the peptide text is derived from it. Bridges are numbered along the chain shown (N, C = ends). [ ]: non-standard residue; d: D form. Trp(2-SH) = 2-mercapto-L-tryptophan, O=C([C@H](Cc1c(S[*:3])[nH]c2ccccc12)N[*:1])[*:2]; Trp(2-yl) = O=C([C@H](Cc1c([*:3])[nH]c2ccccc12)N[*:1])[*:2]; Leu(4R-OH,5-OH) = C[C@](O)(CO)C[C@H](N)C(=O)O; Leu(4,5-diOH) = 4,5-dihydroxy-L-leucine; cisHyp = O=C(O)[C@@H]1C[C@H](O)CN1
Tests used:
[1] = oral; cited from earlier work
[2] = parenteral: inhalation, intravenous or intramuscular injection; cited from earlier work
[3] = system: POPB (prolyl oligopeptidase) purified from Conocybe albipes; assay: cleavage of synthetic model toxin propeptides by purified POP, reverse phase HPLC and MS; format: biochemical; conditions: products confirmed by MS/MS
Experimental: The responsible enzyme was purified. Specifically, Conocybe mushrooms were freeze-dried, ground in buffer, and the extracts concentrated by ammonium sulfate precipitation. After desalting, the proteins were fractionated by anion exchange high-performance liquid chromatography (or high pressure liquid chromatography, HPLC).
Fractions containing peptides were assayed using Z-Gly-Pro-pNA and the model phallacidin substrate. Reaction products were separated by reverse phase HPLC (FIG. 20). In some experiments the HPLC eluant was analyzed by MS, while in other cases the peaks of UV absorption were collected and analyzed by MS in the inventors lab and the central LC/MS facility, in particular for long HPLC run times. […] PepSeq within the MassLynx program was used to determine peptide sequences. The peptides eluting from HPLC were monitored at 280 nm.
Confirmation of reaction product structures was accomplished by MS/MS.

human = conditions: cited from earlier work

Compound: C[C@@H]1NC(=O)[C@H](C[C@@](C)(O)CO)NC(=O)[C@@H]2Cc3c([nH]c4ccccc34)SC[C@H](NC(=O)[C@@H]([C@H](C)O)NC1=O)C(=O)N1C[C@@H](O)C[C@H]1C(=O)N[C@@H](C)C(=O)N2 [phalloidin, cyclic (L-alanyl-D-threonyl-L-cysteinyl-cis-4-hydroxy-L-prolyl-L-alanyl-2-mercapto-L-tryptophyl-4,5-dihydroxy-L-leucyl), cyclic (3,6)-sulfide] (cyclo(A[dT]C[cisHyp]A[Trp(2-yl)][Leu(4R-OH,5-OH)]); thioether 3-6)
- absorption by the mammalian digestive tract [1]: do not appear to be absorbed
- toxicity when administered parenterally [2]: poisonous

Compound: ATRLPAWLVDCPCVGDD [synthetic phallacidin precursor]
- cleavage by purified POP at flanking Pro residues [3]: cut

Compound: ATRLPIWGIGCNPCVGDD [synthetic amanitin precursor]
- cleavage by purified POP at flanking Pro residues [3]: cut

Compound: MSDINATRLPAWLATCPCAGDD [synthetic phalloidin peptide, synthesized model peptide mimicking the phalloidin proprotein]
- cleavage by purified POP at flanking Pro residues [3]: cuts

Compound: cyclic (L-alanyl-2-mercapto-L-tryptophyl-4,5-dihydroxy-L-leucyl-L-valyl-er-ythro-3-hydroxy-D-alpha-aspartyl-cysteinyl-cis-4-hydroxy-L-prolyl)cyclic (2-6)-sulfide (cyclo(A[Trp(2-SH)][Leu(4,5-diOH)]VDC[cisHyp]); thioether 2-6; not fully specified (residue 5)) [phallacidin]
- absorption by the mammalian digestive tract [1]: do not appear to be absorbed
- toxicity when administered parenterally [2]: poisonous

Compound: cyclic (L-asparaginyl-4-hydroxy-L-prolyl-(R)-4,5-dihydroxy-L-isoleucyl-6-hydroxy-2-mercapto-L-tryptophylglycyl-L-isoleucylglycyl-L-cysteinyl), cyclic (4-8)-sulfide, (R)—S-oxide [α-amanitin]
- fatal dose (human; fatal for at least 50% of people weighing approximately 100-110 kgs, amount one mature mushroom can contain): 10 to 12 mg
- human LD50 (human; human): approximately 0.1 mg/kg

Reference: patent US9598686B2, “Use of Galerina marginata genes and proteins for peptide production” (Board of Trustees of Michigan State University, priority 2007, dated 2017)
